Reference: PMC8290231 (Cancer Medicine, 2021)
Where two headings read alike, the source gives them in different places. Each block holds one compound with its values, some of them ahead of it.

Key:
Ba/F3‐FGFR1 xenograft = experiment: Mouse xenograft tumor model; type: in vivo, CB17‐SCID mice; conditions: for tumor growth inhibition (TGI): oral gavage
Excerpt: (§1) All animal studies were approved by the Institutional Animal Care and Use Committee. Male CB17‐SCID mice were purchased from Vital River Laboratory Animal Technology Inc. (Beijing, China). The right flanks of SCID mice were subcutaneously injected with 2 x 10^6 Ba/F3‐FGFR1, Ba/F3‐FGFR1‐V561F, or Ba/F3‐FGFR1‐V561M cells, respectively. When the average tumor volume reached 100–200 mm^3, mice bearing tumor were randomly divided into groups and treated with compounds or vehicle. All the compounds were suspended in 0.5% CMC‐Na aqueous solution. […] The body weight and tumor volume of animals were measured once every 2 days. Tumor volumes were calculated as L×W×W/2, where L and W are the length and width of the tumor, respectively. At the experiment terminal, tumor tissues were dissected, paraffin embedded, and sectioned for hematoxylin and eosin (H&E), immunohistochemistry (IHC), and TUNEL analysis.

[1] = system: Ba/F3‐FGFR1‐V561F xenograft; experiment: Mouse xenograft tumor model; type: in vivo, CB17‐SCID mice
Excerpt: as §1

Ba/F3‐FGFR1‐V561F [2] = experiment: Apoptosis assay by flow cytometry (Annexin V / 7-AAD); type: cell-based
Description: After incubation, cells were collected and washed twice with pre‐cold PBS. About 6 × 10^5 cells were resuspended in 100 μl of 1× BD binding buffer solution (#556454, BD), and then stained with 7‐ADD (#559925, BD) and Annexin V‐PE (#556422, BD) in the dark for 15 min. Finally, 400 μl of 1×BD binding buffer solution were added to stop dyeing. The cells were then measured on a Guava easyCyte flow cytometer (Merck, USA).

SNU16 = experiment: CCK-8 cell proliferation assay; type: cell-based; conditions: Homo sapiens, SNU-16; FGFR2 amplification; CCK-8, 72 h; read-out: antiproliferative IC50, SNU16
Description: (§2) The base medium for MDA‐MB‐453 cell line is DMEM medium (CORNING, USA). All other cell lines were cultured in RPMI‐1640 medium supplemented with 10% FBS, 100 U/ml of penicillin, and […] of streptomycin in 5% CO2 at 37℃. The cells in the logarithmic growth phase were used for the experiments.
(§3) Cells were seeded in 96‐well plate in complete medium (1000–6000 cells/well) and cultured for overnight. Then the cells were exposed to gradient concentrations (0.0005–10 μM) of compounds. Cell proliferation was analyzed by Cell Counting Kit 8 (CK04, Dojindo Laboratories, Japan) after co‐incubation for a further 72 h. IC50 values were calculated by fitting of concentration–response curves using GraphPad Prism 8.01 software. Each assay was repeated at least three times.
(§4) The expression and activation levels of FGFR1–4 in these cells were determined via western blot experiments (Figure S1).

MDA‐MB‐453 = experiment: CCK-8 cell proliferation assay; type: cell-based; conditions: Homo sapiens, MDA-MB-453; FGFR4‐Y367C; CCK-8, 72 h; read-out: antiproliferative IC50, MDA‐MB‐453
Description: as §2, §3, §4

[3] = system: FGFR1 signal pathway in Ba/F3‐FGFR1‐V561F; experiment: Western blot of FGFR1 signal pathway; type: cell-based
Description: Cells were treated with different concentrations of compound or DMSO for indicated time. Then, cells were lysed with 1 × SDS sample lysis buffer (recommended by CST). […] After blocking with 5% BSA in TBST solution (0.5% Tween‐20) at room temperature for 4 hrs, the membranes were incubated with the corresponding primary antibody (1:2000–1:200) at 4℃ overnight. After washing with TBST for 3–5 times, the HRP‐conjugated secondary antibodies were incubated for 2 hrs. The protein signals were detected with Amersham Imager 600 system (GE, Boston, MA, USA) using an ECL western blotting detection kit (Thermo Fisher Scientific, Waltham, MA, USA).
Cell lysates were separated by sodium dodecyl sulfate‐polyacrylamide gel electrophoresis (SDS‐PAGE) and analyzed by western blot for phosphorylated FGFR1, FGFR1, phosphorylated FRS2, FRS2, phosphorylated AKT (Ser473), AKT, phosphorylated Erk, and Erk. GAPDH was used as a control

Ba/F3‐FGFR1‐V561F [4] = experiment: Cell cycle analysis by flow cytometry (propidium iodide); type: cell-based
Description: About 6 × 10^5 cells were re‐suspended in 150 μl of BD Cytofix/Cytoperm buffer solution I for 10 min at room temperature. The cell suspensions were added with BD Cytofix/Cytoperm buffer solution II and incubated with another 10 min at room temperature, and then incubated with 200 μl of propidium iodide buffer (0.1 mg/ml) in the dark for 10 min at 4℃. Assays were performed with a Guava easyCyte flow cytometer (Merck, USA).

Ba/F3‐FGFR1‐V561F [5] = experiment: CCK-8 proliferation assay in Ba/F3 stable cells; type: cell-based; conditions: Mus musculus
Description: (§5) The Ba/F3 cell lines stably expressing FGFR1, FGFR1‐V561M, FGFR1‐V561F, FGFR1‐K656N, and FGFR1‐K656E were self‐established through electroporation pCDNA3.1‐TEL plasmids using the Amaxa Cell Line Nucleofector Kit V (Lonza, Cologne, Germany). Stable cell lines were selected by G418 (Merck, USA) and then withdrawal of IL‐3 (R&D). […] Parental Ba/F3 cells were maintained in RPMI 1640 supplemented with 10% FBS, 100 U/ml of penicillin, […] of streptomycin, and 10 ng/ml of IL‐3, while all Ba/F3 stable cell lines were cultured in the same medium without IL‐3.
as §3
(§6) There is, however, no commercially available FGFR1 mutant kinase to validate this. Therefore, we constructed Ba/F3 model cells stably expressing FGFR1‐WT, K656E, K656N, V561M, and V561F mutations.

Ba/F3‐FGFR1‐K656E = experiment: CCK-8 proliferation assay in Ba/F3 stable cells; type: cell-based; conditions: Mus musculus
Description: as §5, §3, §6

Ba/F3‐FGFR1‐K656N = experiment: CCK-8 proliferation assay in Ba/F3 stable cells; type: cell-based; conditions: Mus musculus, read-out: IC50 (μΜ) Ba/F3‐FGFR1‐K656N
Description: as §5, §3, §6

Ba/F3‐FGFR1 = experiment: CCK-8 proliferation assay in Ba/F3 stable cells; type: cell-based; conditions: Mus musculus, read-out: IC50 (μΜ) Ba/F3‐FGFR1
Description: as §5, §3, §6

Ba/F3‐FGFR1‐V561M = experiment: CCK-8 proliferation assay in Ba/F3 stable cells; type: cell-based; conditions: Mus musculus
Description: as §5, §3, §6

Compound: Cc1ccc(C(=O)Nc2ccc(CN3CCN(C)CC3)c(C(F)(F)F)c2)cc1C#Cc1cnc2[nH]ncc2c1 [GZD824]
tumor growth inhibition (TGI) (Ba/F3‐FGFR1 xenograft; 20 mg/kg): 76.5%
IHC (pFGFR1) and TUNEL in tumor tissues (Ba/F3‐FGFR1 xenograft; 12 days): inhibits the FGFR1 activation and induces apoptosis
tumor growth inhibition (TGI) ([1]; 20 mg/kg, p.o., q2d): 73.4%
IHC (pFGFR1) and TUNEL in tumor tissues ([1]; 12 days): inhibits the FGFR1 activation and induces apoptosis
apoptosis (Ba/F3‐FGFR1‐V561F [2]; 100 nM, 48 h): 71.01%
IC50 (SNU16): 0.0144 ± 0.0048 µM
IC50 (MDA‐MB‐453): 0.148 ± 0.104 µM
FGFR1 phosphorylation, downstream FRS2 and ERK1/2 ([3]; 4 h, 3.7 nM to 300 nM): dose‐dependent inhibition
G0/G1 phase (Ba/F3‐FGFR1‐V561F [4]; 100 nM, 24 h): 71.13%
IC50 (Ba/F3‐FGFR1‐V561F [5]; BaF3, 72 h, read-out: IC50 (μΜ) Ba/F3‐FGFR1‐V561F): 0.012 ± 0.0005 µM
IC50 (Ba/F3‐FGFR1‐K656E; BaF3, 72 h, read-out: IC50 (μΜ) Ba/F3‐FGFR1‐K656E): 0.0206 ± 0.0008 µM
IC50 (Ba/F3‐FGFR1‐K656N; BaF3, 72 h): 0.012 ± 0.002 µM
IC50 (Ba/F3‐FGFR1; BaF3, 72 h): 0.0081 ± 0.0011 µM
IC50 (Ba/F3‐FGFR1‐V561M; BaF3, 72 h, read-out: IC50 (μΜ) Ba/F3‐FGFR1‐V561M): 0.055 ± 0.0037 µM

IC50 (SNU16): 0.0186 ± 0.0063 µM
IC50 (Ba/F3‐FGFR1‐V561F [5]; BaF3, CCK-8, 72 h, read-out: IC50 (μΜ) Ba/F3‐FGFR1‐V561F): 4.25 ± 0.064 µM
IC50 (Ba/F3‐FGFR1‐V561F [5]; BaF3, bound stated, read-out: IC50 Ba/F3‐FGFR1‐V561F): > 0.33 µM
IC50 (Ba/F3‐FGFR1‐K656E; BaF3, CCK-8, 72 h, read-out: IC50 (μΜ) Ba/F3‐FGFR1‐K656E): 0.33 ± 0.0029 µM
IC50 (Ba/F3‐FGFR1‐K656E; BaF3, bound stated, read-out: IC50 Ba/F3‐FGFR1‐K656E): > 0.33 µM
IC50 (Ba/F3‐FGFR1‐K656N; BaF3, CCK-8, 72 h): 0.082 ± 0.0055 µM
IC50 (Ba/F3‐FGFR1; BaF3, CCK-8, 72 h): 0.031 ± 0.0029 µM
IC50 (Ba/F3‐FGFR1‐V561M; BaF3, CCK-8, 72 h, read-out: IC50 (μΜ) Ba/F3‐FGFR1‐V561M): 4.38 ± 0.28 µM
IC50 (Ba/F3‐FGFR1‐V561M; BaF3, bound stated, read-out: IC50 Ba/F3‐FGFR1‐V561M): > 0.33 µM
Compound: CCN1CCN(c2ccc(Nc3cc(N(C)C(=O)Nc4c(Cl)c(OC)cc(OC)c4Cl)ncn3)cc2)CC1 [BGJ398]
tumor growth inhibition (TGI) (Ba/F3‐FGFR1 xenograft; 10 mg/kg, once every day): 64.2%
tumor growth inhibition (TGI) ([1]; 30 mg/kg, oral gavage, once every day): 2.4%
effect on apoptosis (Ba/F3‐FGFR1‐V561F [2]; 1000 nM): weak effect
IC50 (MDA‐MB‐453): 2.7 ± 0.104 µM
activation of FGFR1 and its signal pathway ([3]; 300 nM): no effects
effect on cell cycle (Ba/F3‐FGFR1‐V561F [4]; 1000 nM): weak effect
